{
  "source": "patent US6455504B1",
  "about": "“Pesticidal macrolides” (priority 1999, dated 2002)",
  "key": {"[1]": {"test_system": "Tobacco Budworm (Heliothis virescens) neonate larvae", "assay": "Tobacco Budworm Neonate Drench Assay", "assay_type": "in vivo", "conditions": "rate 50 ppm, 27° C.", "experimental": "A. Tobacco Budworm (Heliothis virescens) Neonate Drench Assay.\nTo compare insecticidal activities of formula 1 compounds in neonate (<6 hr post-eclosion) larval Heliothis virescens, 1 μg/μL acetone solutions of each of the metabolites were first prepared. The acetone solutions were then diluted with Millipore H2O containing 0.025% Triton X-100 surfactant to yield treatments of 25 or 50 ppm. One milliliter of either concentration of each metabolite was then pipetted directly over and onto a 100-mm diameter #1 Whatman qualitative filter paper circle upon which 20 tobacco budworm neonate larvae had been gently placed. Each treated filter paper and its associated larvae was then placed in a 20 mm×100 mm disposable plastic petri plate. One-hour later, a 1 cm^3 portion of agar-based lepidoptera diet (modified Shorey diet, Southland Products, Lake Village, Ariz.) was placed into each plate as a larval food source. The petri plate were held at 27° C. for 24 hr and then percent larval mortality in each treatment was determined."}, "[2]": {"test_system": "Beet Armyworm (Spodoptera littoralis) larvae", "assay": "Beet Armyworm Topical Assay", "assay_type": "in vivo", "conditions": "rate 1 ug/larva, 21° C.", "experimental": "B. Beet Armyworm (Spodoptera littoralis) Topical Assay.\nAn additional measure of the relative insecticidal activities of the formula 1 compounds was generated by using a 1 μg/μL methanol solution of each compound applied at 1 μL per larva of laboratory-reared Spodoptera littoralis, (mean wt of 43 mg). Each compound was applied along the dorsum of each of six larvae. Treated larvae were then held for five days at 21° C., 60% RH in six well plastic culture plates. Larvae were each supplied with a 1 cm^3 of agar-based lepidoptera diet for sustenance during the 5-day post-exposure interval. Percent mortality was determined at the end of a five day period."}, "[3]": {"test_system": "larval blowfly (Phormia regina)", "assay": "In vitro Larval Blow Fly Assay", "parameters": "key to efficacy by visual inspection for larvae movement: A indicates mortality as indicated by absence of larvae movement; N indicates that larvae movement was observed", "conditions": "for efficacy by visual inspection for larvae movement: up to 48 hours", "experimental": "Filter inserts were placed individually in 96-well mictrotiter plates. Each insert was saturated with bovine serum combined with titrated levels of experimental compounds starting at 100 ppm. Approximately 30 larval blowfly (Phormia regina) were placed each well and the entire plate sealed. The plates were incubated for up to 48 hours incubation at approximately 25° C. and 75-85% humidity after which efficacy was determined by visual inspection of each well for larvae movement. The results of testing compounds 1 and 8 are as follows (both compounds were active above 5 ppm): […]"}, "[4]": {"test_system": "adult stable flies (Stomoxys calcitrans)", "assay": "In vitro Adult Stable Fly Assay", "experimental": "Dental wicks were saturated with serum containing titrated levels of experimental compounds starting at 100 ppm. The dental wicks were placed in petri dishes along with 10 adult stable flies (Stomoxys calcitrans) previously chilled for easier handling. Percent mortality was determined after 24 and 48 hours incubation at approximately 25° C. and 75-85% humidity when compared to a dish containing a wick with control serum only."}, "[5]": {"test_system": "larval ticks (Amblyomma americannum)", "assay": "In vitro Tick Larval Packet Test (LPT) Assay", "conditions": "24 hours", "experimental": "Titrated levels of experimental compounds were dissolved in a combination of olive oil and trichloroethylene and pipetted onto squares of laboratory filter paper. After allowing about an hour for the trichloroethylene to evaporate, the filter papers were folded in half and two sides secured with clamps, forming packets.\nApproximately, 100 larval ticks (Amblyomma americannum) were placed inside each packet and the remaining open side secured with a clamp. The packets were incubated for 24 hours at approximately 72° F. and 95% humidity. Each packet was opened separately and the number of live and dead larvae determined. Percent mortality was determined for each compound."}, "adult stable fly": {"test_system": "adult stable fly", "assay": "In vivo Mouse/Adult Stable Fly (ASF) Assay", "parameters": "species or system adult stable fly fed on mice (Mus musculus)", "conditions": "mice dosed 100 mg/kg, orally or topically", "experimental": "On Study Day 0, six, thirty-gram, white laboratory mice (Mus musculus) (8-10 week old, ICR females, Harlan-Sprague-Dawley, Inc., Indianapolis, Ind.) per treatment were dosed with test article or solvent (90% ethyl oleate/10% DMSO), either orally or topically. On Study Day 1, two mice from each treatment were anesthetized with a 0.25 mL intramuscular injection of a combination of 1.0 mL ketamine (Fort Dodge, Ketaset®, ketamine HCl injection, 100 mg/mL) and 1.0 mL xylazine (Bayer, Rompun®, 20 mg/mL injectable) in 4.5 mL sterile water. The anesthetized mice were placed in the fly boxes containing 30 adult stable fly. The anesthetized mice were left in the boxes for up to 60 minutes and the flies allowed to obtain a blood meal undisturbed. After removal from the fly boxes, the unconscious mice were immediately euthanized with CO2. The fly boxes were exposed to a 12-our day/12-hour night cycle for the entire study period. The temperature in the assay room was 68-72° F. and the humidity was 50-60%. These procedures were repeated exactly on Study Days 2 and 3 with the remaining treated mice. Each day the number of dead flies was recorded and fly boxes discarded. Total percent fly mortality was determined for each treatment and compared to fly mortality of continuously fed ASF and ASF fed on solvent treated control mice."}},
  "data": [
    {"smiles": "CCC=CC1CCCC(OC2CCC(N(C)C)C(C)O2)C(C)C(=O)C2=CC3C(C=C(C)C4CC(OC5OC(C)C(OC)C(OC)C5OC)CC43)C2CC(=O)O1", "note": "(stereo not drawn) [Compound 7]", "values": [
      {"measurement": "Tobacco Budworm Neonate Drench (24 hr) Mortality (%)", "setting": "[1]", "value": 100, "unit": "%"}
    ]},
    {"smiles": "CCC=CC1CCCC(OC2CCC(NC)C(C)O2)C(C)C(=O)C2=CC3C(C=CC4CC(OC5OC(C)C(OC)C(OC)C5OC)CC43)C2CC(=O)O1", "note": "(stereo not drawn) [Compound 3]", "values": [
      {"measurement": "Beet Armyworm Topical (120 hr) Mortality (%)", "setting": "[2]", "value": 100, "unit": "%"}
    ]},
    {"smiles": "CCC=CC1CCCC(OC2CCC(N(C)C)C(C)O2)C(C)C(=O)C2=CC3C(C=CC4C(O)C(OC5OC(C)C(OC)C(OC)C5OC)CC43)C2CC(=O)O1", "note": "(stereo not drawn) [Compound 8]", "values": [
      {"measurement": "efficacy by visual inspection for larvae movement", "setting": "[3]; 0.15 ppm in bovine serum", "value": "N"},
      {"measurement": "efficacy by visual inspection for larvae movement", "setting": "[3]; 0.31 ppm in bovine serum", "value": "N"},
      {"measurement": "efficacy by visual inspection for larvae movement", "setting": "[3]; 0.62 ppm in bovine serum", "value": "N"},
      {"measurement": "efficacy by visual inspection for larvae movement", "setting": "[3]; 1.25 ppm in bovine serum", "value": "N"},
      {"measurement": "efficacy by visual inspection for larvae movement", "setting": "[3]; 2.5 ppm in bovine serum", "value": "N"},
      {"measurement": "efficacy by visual inspection for larvae movement", "setting": "[3]; 5 ppm in bovine serum", "value": "A"},
      {"measurement": "activity against larval blowfly", "setting": "[3]; above 5 ppm (titrated from 100 ppm)", "value": "active"},
      {"measurement": "% mortality", "setting": "[4]; 0.1 ppm in serum, 24 hr", "value": 0, "unit": "%"},
      {"measurement": "% mortality", "setting": "[4]; 0.1 ppm in serum, 48 hr", "value": 0, "unit": "%"},
      {"measurement": "% mortality", "setting": "[4]; 0.5 ppm in serum, 24 hr", "value": 10, "unit": "%"},
      {"measurement": "% mortality", "setting": "[4]; 0.5 ppm in serum, 48 hr", "value": 10, "unit": "%"},
      {"measurement": "% mortality", "setting": "[4]; 1.0 ppm in serum, 24 hr", "value": 30, "unit": "%"},
      {"measurement": "% mortality", "setting": "[4]; 1.0 ppm in serum, 48 hr", "value": 80, "unit": "%"},
      {"measurement": "% mortality", "setting": "[4]; 5.0 ppm in serum, 24 hr", "value": 90, "unit": "%"},
      {"measurement": "% mortality", "setting": "[4]; 5.0 ppm in serum, 48 hr", "value": 100, "unit": "%"},
      {"measurement": "Percent mortality", "setting": "[5]; 0.05%/500 ppm", "value": 12.47, "unit": "%"},
      {"measurement": "Percent mortality", "setting": "[5]; 0.1%/1000 ppm", "value": 69.87, "unit": "%"},
      {"measurement": "Percent mortality", "setting": "[5]; 0.5%/5000 ppm", "value": 100, "unit": "%"},
      {"measurement": "% mortality Day 2", "setting": "adult stable fly; Study Day 2", "value": 46, "unit": "%"},
      {"measurement": "% mortality Day 3", "setting": "adult stable fly; Study Day 3", "value": 76, "unit": "%"},
      {"measurement": "% mortality Day 1", "setting": "adult stable fly; flies fed on Study Day 1", "value": 13, "unit": "%"},
      {"measurement": "% mortality Total", "setting": "adult stable fly; total percent fly mortality", "value": 76, "unit": "%"}
    ]}
  ]
}
